Converted amounts (≈) assume the structure as drawn. Like-named read-outs stand apart in the source and are kept apart here.
Key:
[1] = tested on: P. aeruginosa A24081; assay: Protective effect in intramuscular treatment of infected mice; type: in vivo; conditions: Pseudomonas aeruginosa, im; mice, i.m.; P. aeruginosa A24081; read-out: PD50/treatment
Description: (§1) The PD50 (dose in mg/kg) required to give protection to 50% of the infected mice is indicated.

[2] = tested on: S. aureus A-9606; assay: as above; type: in vivo; conditions: Staphylococcus aureus, im; mice, i.m.; S. aureus A9606; read-out: PD50/treatment
Protocol: (§2) The PD50 (dose in mg/kg required to give protection to 50% of the infected mice) is indicated.
with drugs 0 and 2 hours postinfection.
as §1

[3] = tested on: P. aeruginosa A-9843a; assay: animal or person; type: in vivo, mice
Protocol: as §2
with drugs 0 and 2 hours postinfection.
as §1

[4] = tested on: S. aureus A15097 (Meth-res.); assay: M.I.C., tube dilution; type: cell-based; conditions: Staphylococcus aureus, overnight incubation at 37° C.
[5] = tested on: E. coli A-15119; assay: Protective effect in intramuscular treatment of infected mice; type: in vivo; conditions: Escherichia coli, im; mice, i.m.; E. coli A15119; read-out: PD50/treatment
Protocol: as §2
with drugs 0 and 2 hours postinfection.
as §1

[6] = tested on: H. influenzae A21518; assay: M.I.C., tube dilution; type: cell-based; conditions: Haemophilus influenzae, overnight incubation at 37° C., Nutrient Broth
[7] = tested on: P. aeruginosa A21213; assay: M.I.C., tube dilution; type: cell-based; conditions: Nutrient Broth
[8] = tested on: B. fragilis A22696; assay: M.I.C., tube dilution; type: cell-based; conditions: Bacteroides fragilis, overnight incubation at 37° C., Nutrient Broth
[9] = tested on: K. pneumoniae A9664; assay: Protective effect in intramuscular treatment of infected mice; type: in vivo; conditions: Klebsiella pneumoniae, im, K. pneumoniae A9664, read-out: PD50/treatment
Description: as §1

[10] = tested on: H. influenzae A-9833; assay: M.I.C., tube dilution; type: cell-based; conditions: Haemophilus influenzae, A9833; overnight incubation at 37° C., Nutrient Broth
[11] = tested on: P. mirabilis A-9900; assay: Protective effect in intramuscular treatment of infected mice; type: in vivo; conditions: Proteus mirabilis, im; mice, i.m.; P. mirabilis A9900; read-out: PD50/treatment
Protocol: as §2
with drugs 0 and 2 hours postinfection.
as §1

[12] = Blood levels in mice after intramuscular administration;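 further: compounds dissolved in 0.1 M phosphate buffer at pH 7, data from one experiment using four mice for each compound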
Description: Compounds were solubilized in 0.1 M phosphate buffer pH 7.
a single test; 4 mice used per compound.
Compounds were solubilized in 0.1 M phosphate buffer, pH 7.
on a single test; 4 mice per compound.

[13] = tested on: P. vulgaris A21559; assay: M.I.C., tube dilution; type: cell-based; conditions: Nutrient Broth
[14] = tested on: S. faecalis A20688; assay: M.I.C., tube dilution; type: cell-based; conditions: Nutrient Broth
[15] = tested on: P. aeruginosa A-9843A; assay: M.I.C., tube dilution; type: cell-based; conditions: overnight incubation at 37° C., Nutrient Broth; listed as Ex. 15 "B"
[16] = tested on: E. cloacae A-9659; assay: M.I.C., tube dilution; type: cell-based; conditions: overnight incubation at 37° C., Nutrient Broth; listed as Ex. 15 "B"
[17] = tested on: S. pyogenes A-9604; assay: M.I.C., tube dilution; type: cell-based; conditions: overnight incubation at 37° C., Nutrient Broth; listed as Ex. 15 "B"
[18] = tested on: S. aureus A-9606 (Pen-res.); assay: M.I.C., tube dilution; type: cell-based; conditions: overnight incubation at 37° C., listed as Ex. 15 "B"
[19] = tested on: K. pneumoniae A20468; assay: M.I.C., tube dilution; type: cell-based; conditions: overnight incubation at 37° C., Nutrient Broth; listed as Ex. 15 "B"
[20] = tested on: S. pneumoniae A-9585; assay: M.I.C., tube dilution; type: cell-based; conditions: overnight incubation at 37° C., Nutrient Broth
[21] = tested on: K. pneumoniae A-9664; assay: M.I.C., tube dilution; type: cell-based; conditions: overnight incubation at 37° C., Nutrient Broth
[22] = tested on: P. morganii A15153; assay: M.I.C., tube dilution; type: cell-based; conditions: printed M. morganii A15153; overnight incubation at 37° C.; listed as Ex. 15 "B"
[23] = tested on: E. coli A15119; assay: M.I.C., tube dilution; type: cell-based; conditions: overnight incubation at 37° C., Nutrient Broth; listed as Ex. 15 "B"
[24] = tested on: E. cloacae A-9656; assay: M.I.C., tube dilution; type: cell-based; conditions: overnight incubation at 37° C., Nutrient Broth
[25] = tested on: E. coli A20341-1; assay: M.I.C., tube dilution; type: cell-based; conditions: overnight incubation at 37° C., Nutrient Broth; listed as Ex. 15 "B"
[26] = tested on: P. rettgeri A22424; assay: M.I.C., tube dilution; type: cell-based; conditions: overnight incubation at 37° C., Nutrient Broth; listed as Ex. 15 "B"
[27] = tested on: S. marcescens A20019; assay: M.I.C., tube dilution; type: cell-based; conditions: overnight incubation at 37° C., Nutrient Broth; listed as Ex. 15 "B"
[28] = tested on: S. aureus A-9537; assay: M.I.C., tube dilution; type: cell-based; conditions: listed as Ex. 15 "B"
[29] = tested on: P. mirabilis A-9900; assay: M.I.C., tube dilution; type: cell-based; conditions: overnight incubation at 37° C., Nutrient Broth
[30] = overnight incubation at 37° C., listed as Ex. 15 "B"
[31] = mice, 20 mg/kg i.m. (table 9), 20 mg/kg

Compound: C[C@@H](O)[C@H]1C(=O)N2C(C(=O)[O-])=C(SCc3ccc[n+](C)c3)C[C@H]12 [Example 3, 3-(N-Methylpyridine-3-yl-methanethio)-6α-[1-(R)-hydroxyethyl]-7-oxo-1-azabicyclo(3.2.0)hept-2-ene-2-carboxylate]
- ED50 [1]: 0.8 mg/kg
- ED50 [2]: 0.07 mg/kg
- ED50 ([3]; Pseudomonas aeruginosa, A9843A, in Mus musculus, im, read-out: PD50/treatment): 0.5 mg/kg
- MIC [4]: 4 µg/mL (≈ 12 µM)
- ED50 [5]: 1 mg/kg
- MIC [6]: 2 µg/mL (≈ 5.98 µM)
- MIC ([7]; Pseudomonas aeruginosa, A21213, overnight incubation at 37° C., read-out: MIC): 0.5 µg/mL (≈ 1.5 µM)
- MIC [8]: 0.5 µg/mL (≈ 1.5 µM)
- ED50 [9]: 3 mg/kg
- MIC [10]: 2 µg/mL (≈ 5.98 µM)
- ED50 [11]: 2 mg/kg
- AUC ([12]; mouse, blood, im, 20 mg/kg): 6900 ng·h/mL
- Cmax ([12]; mouse, blood, im, 20 mg/kg): 14500 ng/mL
- half-life ([12]; mouse, blood, im, 20 mg/kg): 10 min
- MIC ([13]; Proteus vulgaris, A21559, overnight incubation at 37° C., read-out: MIC): 0.016 µg/mL (≈ 0.0478 µM)
- MIC ([14]; Enterococcus faecalis, A20688, overnight incubation at 37° C., read-out: MIC): 0.5 µg/mL (≈ 1.5 µM)

Compound: C[C@@H](O)C1C(=O)N2C(C(=O)[O-])=C(SCc3cn(C)n[n+]3C)CC12 (stereo partly drawn) [Example 15 "B", 3-[4-(N,N-dimethyl-1,2,3-triazolium)methylthio]-6α-[1-(R)-hydroxyethyl]-7-oxo-1-azabicyclo(3.2.0)hept-2-ene-2-carboxylate]
- MIC [15]: 2 µg/mL (≈ 5.91 µM)
- MIC [16]: 0.016 µg/mL (≈ 0.0473 µM)
- MIC [17]: 1 ng/mL (≈ 0.00296 µM)
- PD50/treatment ([3]; mice, i.m., P. aeruginosa A9843A): 0.89 mg/kg
- MIC [18]: 8 ng/mL (≈ 0.0236 µM)
- MIC [19]: 0.016 µg/mL (≈ 0.0473 µM)
- MIC [20]: 0.5 ng/mL (≈ 0.00148 µM)
- MIC [7, 30]: 0.13 µg/mL (≈ 0.384 µM)
- MIC [21]: 0.03 µg/mL (≈ 0.0887 µM)
- MIC [22]: 0.06 µg/mL (≈ 0.177 µM)
- MIC [23]: 8 ng/mL (≈ 0.0236 µM)
- MIC [24]: 0.03 µg/mL (≈ 0.0887 µM)
- MIC [25]: 8 ng/mL (≈ 0.0236 µM)
- MIC [26]: 0.13 µg/mL (≈ 0.384 µM)
- MIC [27]: 0.016 µg/mL (≈ 0.0473 µM)
- T1/2 ([12]; mice, 20 mg/kg i.m. (table 9)): 10 min
- AUC [12, 31]: 7400 ng·h/mL
- Cmax [12, 31]: 15900 ng/mL
- MIC [13, 30]: 0.008 µg/mL (≈ 0.0236 µM)
- MIC ([28]; +50% serum): 16 ng/mL (≈ 0.0473 µM)
- MIC ([28]; overnight incubation at 37° C., Nutrient Broth): 4 ng/mL (≈ 0.0118 µM)
- MIC [29]: 0.03 µg/mL (≈ 0.0887 µM)
- MIC ([14]; overnight incubation at 37° C.): 0.5 µg/mL (≈ 1.48 µM)
